Tested on: primary rat HSCs
Assay: Microarray expression profiling of TGFβ1 and TGFβ1+1,25(OH)2D3-treated HSCs
Format: cell-based
Description: VDR Signaling Suppresses TGFβ-induced Pro-Fibrotic Genes. […] Euclidean clustering of both rows and columns using log2 transformed microarray expression data, n=2 per treatment group. […] Data represents the mean±SEM of at least three independent experiments performed in triplicate. Asterisks denote statistically significant differences (Student's unpaired t-test, *p<0.05, **p<0.01). HSCs were isolated from 10-week old male C57BL/6J mice and Wistar rats by in situ pronase, collagenase perfusion and single-step Histogenz gradient as previously reported (Hendriks et al., 1985; Knook et al., 1982). Isolated HSCs were cultured in DMEM (Mediatech) containing 20% FBS (Hyclone) on 6-well plates for 40 hours prior to end-point assays. Total RNA from primary rat or mouse HSCs was isolated using the RNeasy mini kit (Qiagen) according to standard protocols. RNA integrity and quality was assessed using the Agilent Bioanalyzer and prepared for hybridization to Illumina rat or mouse gene expression arrays according to standard Illumina protocols. Feature extraction was performed using the Illumina GenomeStudio software. Normalization and identification of differentially expressed genes from biological duplicates was performed using […] at http://sasquatch.ucsd.edu/vampire/.

SMILES: C=C1/C(=C\C=C2/CCC[C@]3(C)C([C@H](C)CCCC(C)(C)O)CC[C@@H]23)C[C@@H](O)C[C@@H]1O (stereo partly drawn) [1,25(OH)2D3, 1α,25 dihydroxyvitamin D3]
- TGFβ1 induced genes (1,25(OH)2D3 co-treatment with TGFβ1): considerable repression
- Mmp13 VitD + TGF β Avg Signal (TGFβ1 1 ng/ml + 1,25(OH)2D3 100 nM, 24 h, Control 150.8, TGFβ 202.4): 180.0
- Col4a2 VitD + TGF β Avg Signal (TGFβ1 1 ng/ml + 1,25(OH)2D3 100 nM, 24 h, Control 162.6, TGFβ 225.3): 166.2
- Itga7 VitD + TGF β Avg Signal (TGFβ1 1 ng/ml + 1,25(OH)2D3 100 nM, 24 h, Control 170.2, TGFβ 202.7): 161.9
- Col16a1 VitD + TGF β Avg Signal (TGFβ1 1 ng/ml + 1,25(OH)2D3 100 nM, 24 h, Control 175.4, TGFβ 237.2): 173.3
- Col7a1 VitD + TGF β Avg Signal (TGFβ1 1 ng/ml + 1,25(OH)2D3 100 nM, 24 h, Control 185.8, TGFβ 229.6): 190.3
- Itga2 VitD + TGF β Avg Signal (TGFβ1 1 ng/ml + 1,25(OH)2D3 100 nM, 24 h, Control 188.5, TGFβ 257.9): 204.2
- LOC366205 VitD + TGFbeta AVG signal (TGFβ1 1 ng/ml + 1,25(OH)2D3 100 nM, 24 h, Control 193.2, TGFβ 926.6): 140.7
- Tgfb3 VitD + TGF β Avg Signal (TGFβ1 1 ng/ml + 1,25(OH)2D3 100 nM, 24 h, Control 226.4, TGFβ 288.5): 178.6
- LOC499272 VitD + TGFbeta AVG signal (TGFβ1 1 ng/ml + 1,25(OH)2D3 100 nM, 24 h, Control 234.2, TGFβ 620): 140.2
- LOC497796 VitD + TGFbeta AVG signal (TGFβ1 1 ng/ml + 1,25(OH)2D3 100 nM, 24 h, Control 240.8, TGFβ 4341): 859
- Col15a1 VitD + TGF β Avg Signal (TGFβ1 1 ng/ml + 1,25(OH)2D3 100 nM, 24 h, Control 257.9, TGFβ 616.4): 396.9
- Ly49si1 VitD + TGFbeta AVG signal (TGFβ1 1 ng/ml + 1,25(OH)2D3 100 nM, 24 h, Control 261.1, TGFβ 622.8): 134.7
- Tgfbr1 VitD + TGF β Avg Signal (TGFβ1 1 ng/ml + 1,25(OH)2D3 100 nM, 24 h, Control 277.1, TGFβ 365.1): 331.9
- Mmp7 VitD + TGF β Avg Signal (TGFβ1 1 ng/ml + 1,25(OH)2D3 100 nM, 24 h, Control 277.3, TGFβ 469.3): 164.9
- LOC499100 VitD + TGFbeta AVG signal (TGFβ1 1 ng/ml + 1,25(OH)2D3 100 nM, 24 h, Control 281.2, TGFβ 594.6): 154.4
- LOC305269 VitD + TGFbeta AVG signal (TGFβ1 1 ng/ml + 1,25(OH)2D3 100 nM, 24 h, Control 288.8, TGFβ 687.8): 170.6
- Tgfbr2 VitD + TGF β Avg Signal (TGFβ1 1 ng/ml + 1,25(OH)2D3 100 nM, 24 h, Control 289.0, TGFβ 347.6): 358.9
- Stab1_predict VitD + TGFbeta AVG signal (TGFβ1 1 ng/ml + 1,25(OH)2D3 100 nM, 24 h, Control 303.7, TGFβ 1141.2): 204.7
- Mmp19 VitD + TGF β Avg Signal (TGFβ1 1 ng/ml + 1,25(OH)2D3 100 nM, 24 h, Control 319.6, TGFβ 516.3): 308.7
- Cdh1 VitD + TGFbeta AVG signal (TGFβ1 1 ng/ml + 1,25(OH)2D3 100 nM, 24 h, Control 337.9, TGFβ 553.9): 126.8
- Dcir2 VitD + TGFbeta AVG signal (TGFβ1 1 ng/ml + 1,25(OH)2D3 100 nM, 24 h, Control 426.1, TGFβ 842.9): 184.9
- Cysltr1 VitD + TGFbeta AVG signal (TGFβ1 1 ng/ml + 1,25(OH)2D3 100 nM, 24 h, Control 429.3, TGFβ 801.8): 183.5
- LOC501570 VitD + TGFbeta AVG signal (TGFβ1 1 ng/ml + 1,25(OH)2D3 100 nM, 24 h, Control 429.6, TGFβ 887.6): 192.5
- Tmem26_pred VitD + TGFbeta AVG signal (TGFβ1 1 ng/ml + 1,25(OH)2D3 100 nM, 24 h, Control 457.8, TGFβ 912.3): 237.3
- Pirb VitD + TGFbeta AVG signal (TGFβ1 1 ng/ml + 1,25(OH)2D3 100 nM, 24 h, Control 462.9, TGFβ 913.7): 171.1
- LOC366608 VitD + TGFbeta AVG signal (TGFβ1 1 ng/ml + 1,25(OH)2D3 100 nM, 24 h, Control 469.9, TGFβ 892.8): 203.6
- Col1a1 VitD + TGF β Avg Signal (TGFβ1 1 ng/ml + 1,25(OH)2D3 100 nM, 24 h, Control 474.2, TGFβ 1429.1): 557.9
- Loxl2 VitD + TGF β Avg Signal (TGFβ1 1 ng/ml + 1,25(OH)2D3 100 nM, 24 h, Control 495.5, TGFβ 966.5): 597.0
- Timp2 VitD + TGF β Avg Signal (TGFβ1 1 ng/ml + 1,25(OH)2D3 100 nM, 24 h, Control 500.7, TGFβ 913.0): 751.7
- Col3a1 VitD + TGF β Avg Signal (TGFβ1 1 ng/ml + 1,25(OH)2D3 100 nM, 24 h, Control 513.9, TGFβ 965.1): 287.6
- Col6a3 VitD + TGF β Avg Signal (TGFβ1 1 ng/ml + 1,25(OH)2D3 100 nM, 24 h, Control 526.5, TGFβ 848.2): 442.6
- Loxl1 VitD + TGF β Avg Signal (TGFβ1 1 ng/ml + 1,25(OH)2D3 100 nM, 24 h, Control 537.2, TGFβ 1045.1): 560.1
- Ly49si2 VitD + TGFbeta AVG signal (TGFβ1 1 ng/ml + 1,25(OH)2D3 100 nM, 24 h, Control 538.9, TGFβ 1177): 256
- LOC361699 VitD + TGFbeta AVG signal (TGFβ1 1 ng/ml + 1,25(OH)2D3 100 nM, 24 h, Control 557.1, TGFβ 1013.7): 263.7
- Mmp10 VitD + TGF β Avg Signal (TGFβ1 1 ng/ml + 1,25(OH)2D3 100 nM, 24 h, Control 561.7, TGFβ 1042.3): 764.6
- Col8a1 VitD + TGF β Avg Signal (TGFβ1 1 ng/ml + 1,25(OH)2D3 100 nM, 24 h, Control 574.2, TGFβ 1285.9): 773.5
- Ccl12_predicte VitD + TGFbeta AVG signal (TGFβ1 1 ng/ml + 1,25(OH)2D3 100 nM, 24 h, Control 597, TGFβ 1047.9): 191.1
- Col5a1 VitD + TGF β Avg Signal (TGFβ1 1 ng/ml + 1,25(OH)2D3 100 nM, 24 h, Control 611.1, TGFβ 1418.9): 673.0
- LOC304349 VitD + TGFbeta AVG signal (TGFβ1 1 ng/ml + 1,25(OH)2D3 100 nM, 24 h, Control 664, TGFβ 1503.8): 211.1
- Tgfb2 VitD + TGF β Avg Signal (TGFβ1 1 ng/ml + 1,25(OH)2D3 100 nM, 24 h, Control 814.7, TGFβ 1308.4): 388.0
- LOC498751 VitD + TGFbeta AVG signal (TGFβ1 1 ng/ml + 1,25(OH)2D3 100 nM, 24 h, Control 827.8, TGFβ 2611.8): 516.6
- Emr1 VitD + TGFbeta AVG signal (TGFβ1 1 ng/ml + 1,25(OH)2D3 100 nM, 24 h, Control 831.7, TGFβ 1893.5): 319.1
- LOC502904 VitD + TGFbeta AVG signal (TGFβ1 1 ng/ml + 1,25(OH)2D3 100 nM, 24 h, Control 858.7, TGFβ 1425.7): 213.6
- Itga5 VitD + TGF β Avg Signal (TGFβ1 1 ng/ml + 1,25(OH)2D3 100 nM, 24 h, Control 880.0, TGFβ 1227.3): 1158.1
- Cacnb3 VitD + TGFbeta AVG signal (TGFβ1 1 ng/ml + 1,25(OH)2D3 100 nM, 24 h, Control 906.9, TGFβ 2511.6): 415.9
- Bmp2 VitD + TGFbeta AVG signal (TGFβ1 1 ng/ml + 1,25(OH)2D3 100 nM, 24 h, Control 954.6, TGFβ 1628.6, listed as VitD): 305
- Gas7 VitD + TGFbeta AVG signal (TGFβ1 1 ng/ml + 1,25(OH)2D3 100 nM, 24 h, Control 1039.2, TGFβ 4083.5): 832.8
- Slamf9_predic VitD + TGFbeta AVG signal (TGFβ1 1 ng/ml + 1,25(OH)2D3 100 nM, 24 h, Control 1044.7, TGFβ 1762.9): 417.9
- Itga4 VitD + TGF β Avg Signal (TGFβ1 1 ng/ml + 1,25(OH)2D3 100 nM, 24 h, Control 1128.4, TGFβ 1464.4): 380.6
- LOC498741 VitD + TGFbeta AVG signal (TGFβ1 1 ng/ml + 1,25(OH)2D3 100 nM, 24 h, Control 1156.2, TGFβ 1908.8): 314.1
- Hod VitD + TGFbeta AVG signal (TGFβ1 1 ng/ml + 1,25(OH)2D3 100 nM, 24 h, Control 1297, TGFβ 2520.2): 495.9
- LOC502907 VitD + TGFbeta AVG signal (TGFβ1 1 ng/ml + 1,25(OH)2D3 100 nM, 24 h, Control 1399.7, TGFβ 2318.7): 241.9
- Ptprc VitD + TGFbeta AVG signal (TGFβ1 1 ng/ml + 1,25(OH)2D3 100 nM, 24 h, Control 1582.3, TGFβ 2387): 569.1
- Itgam VitD + TGF β Avg Signal (TGFβ1 1 ng/ml + 1,25(OH)2D3 100 nM, 24 h, Control 1689.7, TGFβ 2297.0): 658.0
- Col4a1 VitD + TGF β Avg Signal (TGFβ1 1 ng/ml + 1,25(OH)2D3 100 nM, 24 h, Control 1708.1, TGFβ 2261.0): 1315.2
- Chst1_predict VitD + TGFbeta AVG signal (TGFβ1 1 ng/ml + 1,25(OH)2D3 100 nM, 24 h, Control 1813.1, TGFβ 4284.5): 337.6
- Dsipi VitD + TGFbeta AVG signal (TGFβ1 1 ng/ml + 1,25(OH)2D3 100 nM, 24 h, Control 1943.2, TGFβ 4575.5): 1152
- Ccr5 VitD + TGFbeta AVG signal (TGFβ1 1 ng/ml + 1,25(OH)2D3 100 nM, 24 h, Control 2069.5, TGFβ 4680.9): 362.3
- Itgav VitD + TGF β Avg Signal (TGFβ1 1 ng/ml + 1,25(OH)2D3 100 nM, 24 h, Control 2145.1, TGFβ 4760.5): 2417.2
- Mmp9 VitD + TGF β Avg Signal (TGFβ1 1 ng/ml + 1,25(OH)2D3 100 nM, 24 h, Control 2153.3, TGFβ 4197.3): 2676.4
- Col5a2 VitD + TGF β Avg Signal (TGFβ1 1 ng/ml + 1,25(OH)2D3 100 nM, 24 h, Control 2181.0, TGFβ 3452.2): 1696.8
- Lox VitD + TGF β Avg Signal (TGFβ1 1 ng/ml + 1,25(OH)2D3 100 nM, 24 h, Control 2260.8, TGFβ 7481.1): 4219.9
- LOC499356 VitD + TGFbeta AVG signal (TGFβ1 1 ng/ml + 1,25(OH)2D3 100 nM, 24 h, Control 2562.8, TGFβ 3888.4): 352.7
- Fchsd2_predic VitD + TGFbeta AVG signal (TGFβ1 1 ng/ml + 1,25(OH)2D3 100 nM, 24 h, Control 2632.5, TGFβ 7594.5): 1565
- Tgfb1 VitD + TGF β Avg Signal (TGFβ1 1 ng/ml + 1,25(OH)2D3 100 nM, 24 h, Control 2922.5, TGFβ 5480.4): 4391.0
- Ms4a4a_predi VitD + TGFbeta AVG signal (TGFβ1 1 ng/ml + 1,25(OH)2D3 100 nM, 24 h, Control 3327, TGFβ 14356): 810.7
- Pcsk1 VitD + TGFbeta AVG signal (TGFβ1 1 ng/ml + 1,25(OH)2D3 100 nM, 24 h, Control 3330.8, TGFβ 6754.6): 912.4
- Ms4a6a_predi VitD + TGFbeta AVG signal (TGFβ1 1 ng/ml + 1,25(OH)2D3 100 nM, 24 h, Control 3823.9, TGFβ 7658.8): 1696

Reference: US10238667B2, “Vitamin D receptor/SMAD genomic circuit gates fibrotic response” (Salk Institute for Biological Studies, priority 2013, dated 2019)
